Assay results taken from PubChem BioAssay AID1963445 (Molecular Pharmacology Branch, DTP, NCI, 2024).
Several values for one entry are separate records, joined by “and”; a condition that tells them apart may be missing. Identical values can stand only once.

Tested on: MCF7 complex spheroid growth, % test/control
Assay: Anticancer human tumor MCF7 cell line growth inhibition [Asc];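 further: spheroids exposed to compounds for 7 days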;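 on viability, T/C: 100% = DMSO vehicle control wells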
Conditions: for viability, T/C: stronger effect = lower value
How it was run: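 Complex solid-tumor spheroids incorporating human endothelial and mesenchymal stem cells received single agents or combinations over half-log dilution ranges anchored to clinical Cmax.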

[1] = curve of first compound, second compound 0.0316 µM
[2] = curve of first compound, second compound 0.1 µM
[3] = curve of first compound, second compound 0.316 µM
[4] = curve of first compound, second compound 1 µM

## NC(=O)C(=Cn1cnc(-c2cc(C(F)(F)F)cc(C(F)(F)F)c2)n1)c1cncnc1 + CNC(C)C(=O)NC1CN(S(=O)(=O)c2cccc(S(=O)(=O)N3CCC4CCC(C(=O)NC(c5ccccc5)c5ccccc5)N4C(=O)C(NC(=O)C(C)NC)C3)c2)CCC2CCC(C(=O)NC(c3ccccc3)c3ccccc3)N2C1=O
Curve of first compound, second compound 0.00316 µM
  IC50: < 0.949 nM
Curve of first compound, second compound 0.01 µM
  IC50: < 0.949 nM
[1]
  IC50: < 0.949 nM
[2]
  IC50: < 0.949 nM
[3]
  IC50: < 0.949 nM
[4]
  IC50: < 0.949 nM
Second compound 0.00316 µM, first compound 0.000949 µM
  viability, T/C: 38.3%
Second compound 0.00316 µM, first compound 0.003 µM
  viability, T/C: 35.7%
Second compound 0.00316 µM, first compound 0.00949 µM
  viability, T/C: 23.6%
Second compound 0.00316 µM, first compound 0.03 µM
  viability, T/C: 16.3%
Second compound 0.00316 µM, first compound 0.0949 µM
  viability, T/C: 15.7%
Second compound 0.00316 µM, first compound 0.3 µM
  viability, T/C: 19.8%
Second compound 0.01 µM, first compound 0.000949 µM
  viability, T/C: 17.5%
Second compound 0.01 µM, first compound 0.003 µM
  viability, T/C: 12.1%
Second compound 0.01 µM, first compound 0.00949 µM
  viability, T/C: 11.6%
Second compound 0.01 µM, first compound 0.03 µM
  viability, T/C: 14.1%
Second compound 0.01 µM, first compound 0.0949 µM
  viability, T/C: 17.8%
Second compound 0.01 µM, first compound 0.3 µM
  viability, T/C: 16.7%
Second compound 0.0316 µM, first compound 0.000949 µM
  viability, T/C: 17.1%
Second compound 0.0316 µM, first compound 0.003 µM
  viability, T/C: 12.9%
Second compound 0.0316 µM, first compound 0.00949 µM
  viability, T/C: 13.1%
Second compound 0.0316 µM, first compound 0.03 µM
  viability, T/C: 17%
Second compound 0.0316 µM, first compound 0.0949 µM
  viability, T/C: 19%
Second compound 0.0316 µM, first compound 0.3 µM
  viability, T/C: 20.2%
Second compound 0.1 µM, first compound 0.000949 µM
  viability, T/C: 14.6%
Second compound 0.1 µM, first compound 0.003 µM
  viability, T/C: 14.6%
Second compound 0.1 µM, first compound 0.00949 µM
  viability, T/C: 13.7%
Second compound 0.1 µM, first compound 0.03 µM
  viability, T/C: 14.3%
Second compound 0.1 µM, first compound 0.0949 µM
  viability, T/C: 22.9%
Second compound 0.1 µM, first compound 0.3 µM
  viability, T/C: 22.2%
Second compound 0.316 µM, first compound 0.000949 µM
  viability, T/C: 12.9%
Second compound 0.316 µM, first compound 0.003 µM
  viability, T/C: 16%
Second compound 0.316 µM, first compound 0.00949 µM
  viability, T/C: 14.4%
Second compound 0.316 µM, first compound 0.03 µM
  viability, T/C: 14.5%
Second compound 0.316 µM, first compound 0.0949 µM
  viability, T/C: 22.4%
Second compound 0.316 µM, first compound 0.3 µM
  viability, T/C: 23.7%
Second compound 1 µM, first compound 0.000949 µM
  viability, T/C: 13.9%
Second compound 1 µM, first compound 0.003 µM
  viability, T/C: 16%
Second compound 1 µM, first compound 0.00949 µM
  viability, T/C: 13.9%
Second compound 1 µM, first compound 0.03 µM
  viability, T/C: 16.6%
Second compound 1 µM, first compound 0.0949 µM
  viability, T/C: 18.5%
Second compound 1 µM, first compound 0.3 µM
  viability, T/C: 22.3%

## Cn1ncnc1[C@H]1c2n[nH]c(=O)c3cc(F)cc(c23)N[C@@H]1c1ccc(F)cc1
Compound 0.000316 µM
  viability, T/C: 95.7% and 82.9% and 96.4%
Compound 0.001 µM
  viability, T/C: 97.3% and 106% and 99.9%
Compound 0.00316 µM
  viability, T/C: 97.1% and 107% and 101%
Compound 0.01 µM
  viability, T/C: 63.8% and 84.2% and 67.2%
Compound 0.0316 µM
  viability, T/C: 60% and 87.7% and 88.1%
Compound 0.1 µM
  viability, T/C: 48.8% and 84.9% and 75.1%
Curve of compound
  IC50: > 100 nM

## C=CC(=O)N1CCN(c2nc(=O)n(-c3c(C)ccnc3C(C)C)c3nc(-c4c(O)cccc4F)c(F)cc23)C(C)C1 (stereo not given)
Compound 0.0316 µM
  viability, T/C: 92.7% and 99.7% and 107%
Compound 0.1 µM
  viability, T/C: 90.9% and 101% and 93.8%
Compound 0.316 µM
  viability, T/C: 85.3% and 99.8% and 90.6%
Compound 1 µM
  viability, T/C: 91.7% and 121% and 102%
Compound 3.16 µM
  viability, T/C: 81.7% and 103% and 114%
Compound 10 µM
  viability, T/C: 75% and 76.2% and 103%
Curve of compound
  IC50: > 10000 nM

## O=C(c1ccc(F)c(F)c1Nc1ccc(I)cc1F)N1CC(O)([C@@H]2CCCCN2)C1 + Cc1c(S(C)(=O)=O)c(-c2cc(F)cc(N3CCN(c4ccc(NS(=O)(=O)c5ccc(NC(CCN6CCC(C(=O)OCCCP(=O)(O)O)CC6)CSc6ccccc6)c(S(=O)(=O)C(F)(F)F)c5)cc4)CC3)c2)c(-c2ccc(Cl)cc2)n1C(C)C
[1]
  IC50: > 1000 nM
[2]
  IC50: > 1000 nM
[3]
  IC50: > 1000 nM
[4]
  IC50: > 1000 nM
Curve of first compound, second compound 3.16 µM
  IC50: > 1000 nM
Curve of first compound, second compound 10 µM
  IC50: > 1000 nM
Second compound 0.0316 µM, first compound 0.00316 µM
  viability, T/C: 101%
Second compound 0.0316 µM, first compound 0.01 µM
  viability, T/C: 97.2%
Second compound 0.0316 µM, first compound 0.0316 µM
  viability, T/C: 88.6%
Second compound 0.0316 µM, first compound 0.1 µM
  viability, T/C: 83.2%
Second compound 0.0316 µM, first compound 0.316 µM
  viability, T/C: 95.2%
Second compound 0.0316 µM, first compound 1 µM
  viability, T/C: 112%
Second compound 0.1 µM, first compound 0.00316 µM
  viability, T/C: 101%
Second compound 0.1 µM, first compound 0.01 µM
  viability, T/C: 89.7%
Second compound 0.1 µM, first compound 0.0316 µM
  viability, T/C: 93.6%
Second compound 0.1 µM, first compound 0.1 µM
  viability, T/C: 88.8%
Second compound 0.1 µM, first compound 0.316 µM
  viability, T/C: 94.8%
Second compound 0.1 µM, first compound 1 µM
  viability, T/C: 90%
Second compound 0.316 µM, first compound 0.00316 µM
  viability, T/C: 90.7%
Second compound 0.316 µM, first compound 0.01 µM
  viability, T/C: 88.2%
Second compound 0.316 µM, first compound 0.0316 µM
  viability, T/C: 81%
Second compound 0.316 µM, first compound 0.1 µM
  viability, T/C: 93.1%
Second compound 0.316 µM, first compound 0.316 µM
  viability, T/C: 96.4%
Second compound 0.316 µM, first compound 1 µM
  viability, T/C: 84.2%
Second compound 1 µM, first compound 0.00316 µM
  viability, T/C: 84.8%
Second compound 1 µM, first compound 0.01 µM
  viability, T/C: 78%
Second compound 1 µM, first compound 0.0316 µM
  viability, T/C: 82.9%
Second compound 1 µM, first compound 0.1 µM
  viability, T/C: 94.5%
Second compound 1 µM, first compound 0.316 µM
  viability, T/C: 109%
Second compound 1 µM, first compound 1 µM
  viability, T/C: 74.3%
Second compound 3.16 µM, first compound 0.00316 µM
  viability, T/C: 80.9%
Second compound 3.16 µM, first compound 0.01 µM
  viability, T/C: 86.5%
Second compound 3.16 µM, first compound 0.0316 µM
  viability, T/C: 80.1%
Second compound 3.16 µM, first compound 0.1 µM
  viability, T/C: 98.5%
Second compound 3.16 µM, first compound 0.316 µM
  viability, T/C: 82.6%
Second compound 3.16 µM, first compound 1 µM
  viability, T/C: 81.8%
Second compound 10 µM, first compound 0.00316 µM
  viability, T/C: 159%
Second compound 10 µM, first compound 0.01 µM
  viability, T/C: 164%
Second compound 10 µM, first compound 0.0316 µM
  viability, T/C: 204%
Second compound 10 µM, first compound 0.1 µM
  viability, T/C: 182%
Second compound 10 µM, first compound 0.316 µM
  viability, T/C: 114%
Second compound 10 µM, first compound 1 µM
  viability, T/C: 90.8%

## O=C(c1cc(Cc2n[nH]c(=O)c3ccccc23)ccc1F)N1CCN(C(=O)C2CC2)CC1
Compound 0.0316 µM
  viability, T/C: 104% and 99% and 94.7%
Compound 0.1 µM
  viability, T/C: 90.7% and 89.4% and 111%
Compound 0.316 µM
  viability, T/C: 95.8% and 90.3% and 114%
Compound 1 µM
  viability, T/C: 104% and 121% and 97.4%
Compound 3.16 µM
  viability, T/C: 81.3% and 87.6% and 46.4%
Compound 10 µM
  viability, T/C: 71.4% and 72.6% and 15.8%
Curve of compound
  IC50: > 10000 nM and 2910 nM
